Experimental data published in US8933233B2, “1,3,4-oxadiazole and 1,3,4-thiadiazole β-lactamase inhibitors” (priority 2012, dated 2015).
Where a name gives a salt, the structure may show the parent alone.

How the values were obtained:
[1] = system: bacterial strains that express KPC β-lactamases; experiment: Synergy MIC / standard BLI potentiation MIC assay, strains expressing KPC β-lactamases; format: cell-based, isogenic E. coli and clinical isolates; details: more active for at least one KPC strain and/or better spectrum; comparator Avibactam
Procedure: (§1) Unless otherwise indicated, the activity of the BLI compounds can be described by the MIC value obtained from a Synergy MIC assay or a BLI potentiation assay (e.g as described herein), both of which are run in the presence of a β-lactam.
(§2) The experimental protocol was performed according to Clinical and Laboratory Standards Institute (CLSI) guidelines with modifications as described below (CLSI guidelines can be derived from the CLSI document M07-A9 published in January 2012: “Methods for Dilution Antimicrobial Susceptibility Tests for Bacteria That Grow Aerobically; Approved Standard-Ninth Edition”).
(§3) To prepare for MIC testing, frozen glycerol stocks of clinical isolates (Klebsiella pneumoniae, Eschericia coli, Enterobacter spp, Citrobacter spp, or Pseudomonas aeruginosa) were used to streak for isolated colonies on rich, non-selective, tryptic soy agar containing 5% sheep's blood (TSAB). Frozen glycerol stocks of laboratory engineered, isogenic E. coli strains, which contain cloned β-lactamase expressing plasmids were used to streak for isolated colonies on rich, selective LB agar supplemented with 25 μg/mL tetracycline to maintain the plasmid. All strains were incubated at 37° C. for 18-24 hrs.
(§4) On the day of testing, primary cultures were started by scraping off 5-10 colonies from the TSAB plates containing clinical strains or the tetracycline supplemented LB plates containing engineered strains. The clinical strain material was suspended in ˜5 mL of cation adjusted Mueller Hinton Broth (CAMHB) in 14 mL culture tubes. The engineered strain material was suspended in CAMHB (supplemented with 25 μg/mL tetracycline) in 14 mL culture tubes. All strains were incubated at 37° C. with aeration (200 rpm) for ˜2 hrs until the optical density at 600 nm (OD600) was ≧0.1.
(§5) The two compound components of the assay were each diluted in CAMHB and added to the 96-well broth microdilution assay plates. 50 μL of the β-lactam was added to each well of the assay plate in 2-fold dilutions with final concentrations ranging from 128 to 0.13 μg/mL. 25 μL of the BLI compound was added to all wells in the broth microdilution plates at a final concentration of 4 μg/mL. Inoculum cultures were prepared by standardizing the primary cultures to OD600=0.1 and then adding 20 μL of the adjusted primary culture per 1 mL CAMHB for clinical strains or CAMHB (supplemented with tetracycline at 100 μg/mL) for engineered strains, so that the final inoculum density was ˜10^5 colony forming units per milliliter. Diluted inoculum cultures were used to inoculate 25 μL per well in 96-well broth microdilution assay plates. The final volume of each well was 100 μL and contained a β-lactam at different concentrations, a BLIcompound at 4 μg/mL concentration, the bacterial culture at an OD600 of approximately 0.001 and when necessary tetracycline at 25 μg/mL.
(§6) Plates were incubated for 18-20 hours at 37° C. with aeration (200 rpm). Following incubation, growth was confirmed visually placing plates over a viewing apparatus (stand with a mirror underneath) and then OD600 was measured using a SpectraMax 340PC384 plate reader (Molecular Devices, Sunnyvale, Calif.). Growth was defined as turbidity that could be detected with the naked eye or achieving minimum OD600 of 0.1. MIC values were defined as the lowest concentration producing no visible turbidity.
(§7) The synergy MIC (sMIC) assay determines the concentration of the BLI required to potentiate the activity of a fixed concentration of a β-lactam antibiotic against β-lactamase producing bacterial strains. The experimental protocol was performed according to Clinical and Laboratory Standards Institute (CLSI) guidelines with modifications as described below (CLSI guidelines can be derived from the CLSI document M07-A9 published in January 2012: “Methods for Dilution Antimicrobial Susceptibility Tests for Bacteria That Grow Aerobically; Approved Standard-Ninth Edition”). […]

[2] = system: bacterial strains that express the class D cephalosporinase OXA-15; experiment: Synergy MIC / standard BLI potentiation MIC assay, strains expressing OXA-15; format: cell-based, E. coli; details: in presence of a β-lactam; comparator Avibactam (CCC)
Procedure: as §1, §2, §3, §4, §5, §6, §7

**Q.** For `O=C1N2C[C@@H](CC[C@H]2c2nnc(CCCNC3CCNCC3)o2)N1OS(=O)(=O)O` [Compound 771, (2S,5R)-7-oxo-2-(5-(3-(piperidin-4-ylamino)propyl)-1,3,4-oxadiazol-2-yl)-1,6-diazabicyclo[3.2.1]octan-6-yl hydrogen sulfate], which “activity and/or spectrum of activity against bacterial strains that express KPC β-lactamases, compared with Avibactam” value [1] is on record?
**A.** Its value is “more active than Avibactam”.

**Q.** What about the “activity against bacterial strains that express OXA-15, compared with Avibactam” value [2] of the same molecule?
**A.** Its value is “more active than Avibactam”.

**Q.** What does the source list for `O=C1N2C[C@@H](CC[C@H]2c2nnc(C3CCNCC3)o2)N1OS(=O)(=O)O` [Compound 711, (2S,5R)-7-oxo-2-(5-(piperidin-4-yl)-1,3,4-oxadiazol-2-yl)-1,6-diazabicyclo[3.2.1]octan-6-yl hydrogen sulfate]?
**A.** activity and/or spectrum of activity against bacterial strains that express KPC β-lactamases, compared with Avibactam [1]: more active than Avibactam; activity against bacterial strains that express OXA-15, compared with Avibactam [2]: more active than Avibactam

**Q.** How did the “activity and/or spectrum of activity against bacterial strains that express KPC β-lactamases, compared with Avibactam” value [1] turn out when `O=C1N2C[C@@H](CC[C@H]2c2nnc(CN[C@@H]3CCNC3)o2)N1OS(=O)(=O)O` [Compound 766, (2S,5R)-7-oxo-2-(5-(((R)-pyrrolidin-3-ylamino)methyl)-1,3,4-oxadiazol-2-yl)-1,6-diazabicyclo[3.2.1]octan-6-yl hydrogen sulfate] was run?
**A.** The value was “more active than Avibactam”.

**Q.** What about the “activity against bacterial strains that express OXA-15, compared with Avibactam” value [2] of the same molecule?
**A.** Its value is “more active than Avibactam”.

**Q.** `N[C@H]1C[C@@H](NCc2nnc([C@@H]3CC[C@@H]4CN3C(=O)N4OS(=O)(=O)O)o2)C1` [Compound 756, (2S,5R)-2-(5-((((1s,3R)-3-aminocyclobutyl)amino)methyl)-1,3,4-oxadiazol-2-yl)-7-oxo-1,6-diazabicyclo[3.2.1]octan-6-yl hydrogen sulfate] was tested. Which “activity and/or spectrum of activity against bacterial strains that express KPC β-lactamases, compared with Avibactam” value [1] did it give?
**A.** Its value is “more active than Avibactam”.

**Q.** And the “activity against bacterial strains that express OXA-15, compared with Avibactam” value [2]?
**A.** Its value is “more active than Avibactam”.

**Q.** What does the source list for `C[n+]1ccc(-c2nnc([C@@H]3CC[C@@H]4CN3C(=O)N4OS(=O)(=O)[O-])o2)cc1` [Compound 782, (2S,5R)-2-(5-(1-methylpyridin-1-ium-4-yl)-1,3,4-oxadiazol-2-yl)-7-oxo-1,6-diazabicyclo[3.2.1]octan-6-yl sulfate]?
**A.** activity and/or spectrum of activity against bacterial strains that express KPC β-lactamases, compared with Avibactam [1]: more active than Avibactam; activity against bacterial strains that express OXA-15, compared with Avibactam [2]: more active than Avibactam

**Q.** Which results are given for `NCCc1nnc([C@@H]2CC[C@@H]3CN2C(=O)N3OS(=O)(=O)O)o1` [Compound 703, (2S,5R)-2-(5-(2-aminoethyl)-1,3,4-oxadiazol-2-yl)-7-oxo-1,6-diazabicyclo[3.2.1]octan-6-yl hydrogen sulfate]?
**A.** activity and/or spectrum of activity against bacterial strains that express KPC β-lactamases, compared with Avibactam [1]: more active than Avibactam; activity against bacterial strains that express OXA-15, compared with Avibactam [2]: more active than Avibactam

**Q.** Which results are given for `NC1(Cc2nnc([C@@H]3CC[C@@H]4CN3C(=O)N4OS(=O)(=O)O)o2)CC1` [Compound 724, (2S,5R)-2-(5-((1-aminocyclopropyl)methyl)-1,3,4-oxadiazol-2-yl)-7-oxo-1,6-diazabicyclo[3.2.1]octan-6-yl hydrogen sulfate]?
**A.** activity and/or spectrum of activity against bacterial strains that express KPC β-lactamases, compared with Avibactam [1]: more active than Avibactam; activity against bacterial strains that express OXA-15, compared with Avibactam [2]: more active than Avibactam

**Q.** How did the “activity and/or spectrum of activity against bacterial strains that express KPC β-lactamases, compared with Avibactam” value [1] turn out when `NC1CCN(CCc2nnc([C@@H]3CC[C@@H]4CN3C(=O)N4OS(=O)(=O)O)o2)CC1` [Compound 775, (2S,5R)-2-(5-(2-(4-aminopiperidin-1-yl)ethyl)-1,3,4-oxadiazol-2-yl)-7-oxo-1,6-diazabicyclo[3.2.1]octan-6-yl hydrogen sulfate] was run?
**A.** Its value is “more active than Avibactam”.
